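Five compound concentrations were applied to cells in 96-well plates for 48 hours; endpoints were derived by simple linear interpolation of the resulting dose-response curve. At the GI50, growth is halved.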 Calls of active or inactive are those of the source. No stated cut-off is given here; in the data, active = GI50 up to about 1.1 µM and inactive = higher.
Experiments:
Experiment in all cases: NCI tumour cell line growth inhibition, 48 h
HT-29 = test system: HT-29
EKVX = test system: EKVX
T47D = test system: T47D
NCI-H460 = test system: NCI-H460
HOP-62 = test system: HOP-62
786-0 = test system: 786-0
COLO 205 = test system: COLO 205
A549 = test system: A549
KM12 = test system: KM12
HOP-92 = test system: HOP-92
OVCAR-8 = test system: OVCAR-8
MDA-MB-435 = test system: MDA-MB-435
LOX IMVI = test system: LOX IMVI
MCF7 = test system: MCF7
RXF 393 = test system: RXF 393
SNB-19 = test system: SNB-19
UACC-257 = test system: UACC-257
SK-MEL-2 = test system: SK-MEL-2
SK-MEL-28 = test system: SK-MEL-28
CAKI-1 = test system: CAKI-1
DU-145 = test system: DU-145
RPMI-8226 = test system: RPMI-8226
CCRF-CEM = test system: CCRF-CEM
SW-620 = test system: SW-620
UACC-62 = test system: UACC-62
TK-10 = test system: TK-10
MOLT-4 = test system: MOLT-4
SK-MEL-5 = test system: SK-MEL-5
MDA-N = test system: MDA-N
SF-268 = test system: SF-268
SR = test system: SR
M14 = test system: M14
K562 = test system: K562
NCI/ADR-RES = test system: NCI/ADR-RES
MDA-MB-231 = test system: MDA-MB-231
BT-549 = test system: BT-549
SNB-75 = test system: SNB-75
ACHN = test system: ACHN
NCI-H522 = test system: NCI-H522
SK-OV-3 = test system: SK-OV-3
HCT-15 = test system: HCT-15
HCC 2998 = test system: HCC 2998
PC-3 = test system: PC-3
NCI-H226 = test system: NCI-H226
SN12C = test system: SN12C
HL-60 = test system: HL-60
UO-31 = test system: UO-31
SF-539 = test system: SF-539
SF-295 = test system: SF-295
OVCAR-4 = test system: OVCAR-4
OVCAR-5 = test system: OVCAR-5
HCT-116 = test system: HCT-116
U-251 = test system: U-251
Hs-578T = test system: Hs-578T
Malme-3M = test system: Malme-3M
IGROV-1 = test system: IGROV-1
A498 = test system: A498
NCI-H23 = test system: NCI-H23
OVCAR-3 = test system: OVCAR-3

For `O=c1oc2ccc([N+](=O)[O-])cc2cc1-c1csc(-c2ccccc2)n1`, the GI50 (HT-29) was > 100 µM (inactive), the GI50 (EKVX) was > 100 µM (inactive) and the GI50 (T47D) was > 100 µM (inactive). For the same compound, the GI50 (NCI-H460) was > 100 µM (inactive), the GI50 (HOP-62) was > 100 µM (inactive) and the GI50 (786-0) was > 100 µM (inactive). For the same compound, the GI50 (COLO 205) was > 100 µM (inactive), the GI50 (A549) was > 100 µM (inactive) and the GI50 (KM12) was > 100 µM (inactive). The GI50 (HOP-92) was > 100 µM (inactive), the GI50 (OVCAR-8) was > 100 µM (inactive) and the GI50 (MDA-MB-435) was > 100 µM (inactive). The GI50 (LOX IMVI) was > 100 µM (inactive), the GI50 (MCF7) was > 100 µM (inactive) and the GI50 (RXF 393) was > 100 µM (inactive). For the same compound, the GI50 (SNB-19) was > 100 µM (inactive), the GI50 (UACC-257) was > 100 µM (inactive) and the GI50 (SK-MEL-2) was > 100 µM (inactive). For the same compound, the GI50 (SK-MEL-28) was > 100 µM (inactive), the GI50 (CAKI-1) was > 100 µM (inactive) and the GI50 (DU-145) was > 100 µM (inactive). The GI50 (RPMI-8226) was > 100 µM (inactive), the GI50 (CCRF-CEM) was > 100 µM (inactive) and the GI50 (SW-620) was > 100 µM (inactive). For the same compound, the GI50 (UACC-62) was > 100 µM (inactive), the GI50 (TK-10) was > 100 µM (inactive) and the GI50 (MOLT-4) was > 100 µM (inactive). For the same compound, the GI50 (SK-MEL-5) was > 100 µM (inactive), the GI50 (MDA-N) was > 100 µM (inactive) and the GI50 (SF-268) was > 100 µM (inactive). The GI50 (SR) was > 100 µM (inactive), the GI50 (M14) was > 100 µM (inactive) and the GI50 (K562) was > 100 µM (inactive). For the same compound, the GI50 (NCI/ADR-RES) was > 100 µM (inactive), the GI50 (MDA-MB-231) was > 100 µM (inactive) and the GI50 (BT-549) was > 100 µM (inactive). For the same compound, the GI50 (SNB-75) was 0.817 µM (active), the GI50 (ACHN) was > 100 µM (inactive) and the GI50 (NCI-H522) was > 100 µM (inactive). The GI50 (SK-OV-3) was > 100 µM (inactive), the GI50 (HCT-15) was > 100 µM and the GI50 (HCC 2998) was > 100 µM (inactive). For the same compound, the GI50 (PC-3) was > 100 µM (inactive), the GI50 (NCI-H226) was > 100 µM (inactive) and the GI50 (SN12C) was > 100 µM (inactive). The GI50 (HL-60) was > 100 µM (inactive), the GI50 (UO-31) was > 100 µM (inactive) and the GI50 (SF-539) was > 100 µM (inactive). For the same compound, the GI50 (SF-295) was > 100 µM (inactive), the GI50 (OVCAR-4) was > 100 µM (inactive) and the GI50 (OVCAR-5) was > 100 µM (inactive). The GI50 (HCT-116) was > 100 µM (inactive), the GI50 (U-251) was > 100 µM (inactive) and the GI50 (Hs-578T) was > 100 µM (inactive). For the same compound, the GI50 (Malme-3M) was 32.6 µM (inactive) and the GI50 (IGROV-1) was > 100 µM (inactive).
For `c1nncn1C12C3C4C5C3C1C5C42` (centres undefined), the GI50 (HT-29) was > 100 µM (inactive), the GI50 (EKVX) was > 100 µM (inactive) and the GI50 (T47D) was > 100 µM (inactive). For the same compound, the GI50 (NCI-H460) was > 100 µM (inactive), the GI50 (HOP-62) was > 100 µM (inactive) and the GI50 (786-0) was > 100 µM (inactive). The GI50 (COLO 205) was > 100 µM (inactive), the GI50 (A549) was > 100 µM (inactive) and the GI50 (KM12) was > 100 µM (inactive). The GI50 (OVCAR-8) was > 100 µM (inactive), the GI50 (MDA-MB-435) was > 100 µM (inactive) and the GI50 (LOX IMVI) was > 100 µM (inactive). The GI50 (A498) was > 100 µM (inactive), the GI50 (MCF7) was > 100 µM (inactive) and the GI50 (SNB-19) was > 100 µM (inactive). For the same compound, the GI50 (UACC-257) was > 100 µM (inactive), the GI50 (NCI-H23) was > 100 µM (inactive) and the GI50 (SK-MEL-2) was > 100 µM (inactive). The GI50 (SK-MEL-28) was > 100 µM (inactive), the GI50 (DU-145) was > 100 µM (inactive) and the GI50 (RPMI-8226) was > 100 µM (inactive). For the same compound, the GI50 (CCRF-CEM) was > 100 µM (inactive), the GI50 (SW-620) was > 100 µM (inactive) and the GI50 (TK-10) was > 100 µM (inactive). The GI50 (MOLT-4) was > 100 µM (inactive), the GI50 (SK-MEL-5) was > 100 µM (inactive) and the GI50 (MDA-N) was > 100 µM (inactive). The GI50 (SF-268) was > 100 µM (inactive), the GI50 (SR) was > 100 µM (inactive) and the GI50 (K562) was > 100 µM (inactive). For the same compound, the GI50 (NCI/ADR-RES) was > 100 µM (inactive), the GI50 (MDA-MB-231) was > 100 µM (inactive) and the GI50 (BT-549) was > 100 µM (inactive). For the same compound, the GI50 (SNB-75) was > 100 µM (inactive), the GI50 (ACHN) was > 100 µM (inactive) and the GI50 (NCI-H522) was > 100 µM (inactive). For the same compound, the GI50 (SK-OV-3) was > 100 µM (inactive), the GI50 (HCT-15) was > 100 µM and the GI50 (HCC 2998) was > 100 µM (inactive). The GI50 (PC-3) was > 100 µM (inactive), the GI50 (NCI-H226) was > 100 µM (inactive) and the GI50 (SN12C) was > 100 µM (inactive). For the same compound, the GI50 (HL-60) was > 100 µM (inactive), the GI50 (SF-539) was > 100 µM (inactive) and the GI50 (SF-295) was > 100 µM (inactive). For the same compound, the GI50 (OVCAR-5) was > 100 µM (inactive), the GI50 (HCT-116) was > 100 µM (inactive) and the GI50 (U-251) was > 100 µM (inactive). The GI50 (Hs-578T) was > 100 µM (inactive) and the GI50 (IGROV-1) was > 100 µM (inactive).
In the case of `COC(=O)c1ccc(/C=N/c2cc(C)nn2-c2ccccc2)cc1`, the GI50 (HT-29) is reported as 22.2 µM (inactive), the GI50 (EKVX) is reported as 75.7 µM (inactive) and the GI50 (T47D) is reported as 16.4 µM (inactive). For the same compound, the GI50 (NCI-H460) was 10.6 µM (inactive), the GI50 (HOP-62) was 18.5 µM (inactive) and the GI50 (786-0) was 67 µM (inactive). The GI50 (COLO 205) was 13.5 µM (inactive), the GI50 (A549) was 76.6 µM (inactive) and the GI50 (KM12) was 24.2 µM (inactive). The GI50 (HOP-92) was 99.1 µM (inactive), the GI50 (OVCAR-8) was 73.8 µM (inactive) and the GI50 (MDA-MB-435) was 8.65 µM (inactive). For the same compound, the GI50 (LOX IMVI) was 35.9 µM (inactive), the GI50 (MCF7) was 15.1 µM (inactive) and the GI50 (RXF 393) was > 100 µM (inactive). The GI50 (SNB-19) was 33.5 µM (inactive), the GI50 (UACC-257) was 6.04 µM (inactive) and the GI50 (NCI-H23) was 48.5 µM (inactive). For the same compound, the GI50 (SK-MEL-2) was 49 µM (inactive), the GI50 (SK-MEL-28) was 82.2 µM (inactive) and the GI50 (CAKI-1) was 93.1 µM (inactive). For the same compound, the GI50 (DU-145) was 41 µM (inactive), the GI50 (RPMI-8226) was 20.4 µM (inactive) and the GI50 (CCRF-CEM) was 29.2 µM (inactive). The GI50 (SW-620) was 20.7 µM (inactive), the GI50 (UACC-62) was 65.8 µM (inactive) and the GI50 (TK-10) was 2.12 µM (inactive). The GI50 (MOLT-4) was 8.47 µM (inactive), the GI50 (SK-MEL-5) was 19.4 µM (inactive) and the GI50 (MDA-N) was 13.8 µM (inactive). For the same compound, the GI50 (SF-268) was 57.1 µM (inactive), the GI50 (SR) was 19.2 µM (inactive) and the GI50 (M14) was 22.5 µM (inactive). The GI50 (K562) was 4.5 µM (inactive), the GI50 (NCI/ADR-RES) was 49.3 µM (inactive) and the GI50 (MDA-MB-231) was > 100 µM (inactive). The GI50 (OVCAR-3) was 12 µM (inactive), the GI50 (BT-549) was 34.9 µM (inactive) and the GI50 (SNB-75) was 21.1 µM (inactive). For the same compound, the GI50 (ACHN) was > 100 µM (inactive), the GI50 (NCI-H522) was 28.8 µM (inactive) and the GI50 (SK-OV-3) was 34.4 µM (inactive). The GI50 (HCT-15) was 13.7 µM, the GI50 (HCC 2998) was 2.79 µM (inactive) and the GI50 (PC-3) was 40.9 µM (inactive). The GI50 (NCI-H226) was 89.5 µM (inactive), the GI50 (SN12C) was 48.3 µM (inactive) and the GI50 (HL-60) was 20.1 µM (inactive). For the same compound, the GI50 (UO-31) was > 100 µM (inactive), the GI50 (SF-539) was > 100 µM (inactive) and the GI50 (SF-295) was 35.8 µM (inactive). The GI50 (OVCAR-4) was 38.6 µM (inactive), the GI50 (OVCAR-5) was > 100 µM (inactive) and the GI50 (HCT-116) was 29 µM (inactive). The GI50 (U-251) was 20.6 µM (inactive), the GI50 (Hs-578T) was 91.2 µM (inactive) and the GI50 (Malme-3M) was 70.8 µM (inactive). The GI50 (IGROV-1) was 34.9 µM (inactive).

Reference: ChEMBL document CHEMBL1201862, “PubChem BioAssay data set” (2004)
